{"source": "paper PMC9021288", "about": "(Nature Communications, 2022)", "key": {"[1]": {"target": "T1, human recombinant CYP2B6 (Homo sapiens, UniProt P20813)", "T1 construct": "purchased Bactosomes (assay run at Cyprotex)", "T1 sequence (P20813 1-491)": "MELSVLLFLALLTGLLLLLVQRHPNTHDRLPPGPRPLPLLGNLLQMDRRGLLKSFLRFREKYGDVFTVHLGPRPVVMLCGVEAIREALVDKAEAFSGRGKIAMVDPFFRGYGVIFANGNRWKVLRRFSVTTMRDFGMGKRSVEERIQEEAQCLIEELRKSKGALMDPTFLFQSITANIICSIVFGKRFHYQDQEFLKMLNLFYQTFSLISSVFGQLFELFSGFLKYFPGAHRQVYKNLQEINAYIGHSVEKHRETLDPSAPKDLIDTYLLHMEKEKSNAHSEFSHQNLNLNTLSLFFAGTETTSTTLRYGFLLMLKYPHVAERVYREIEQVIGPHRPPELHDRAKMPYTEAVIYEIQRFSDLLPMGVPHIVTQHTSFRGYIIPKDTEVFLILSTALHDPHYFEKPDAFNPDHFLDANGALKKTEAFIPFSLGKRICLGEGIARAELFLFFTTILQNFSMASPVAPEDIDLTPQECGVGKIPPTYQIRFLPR", "assay": "CYP reaction phenotyping", "format": "in vitro ADME", "method": "(§1) In vitro CYP reaction phenotyping was performed at Cyprotex (Alderly Park, United Kingdom). […] The remaining test compound at each time point was analyzed by LC-MS/MS."}, "[2]": {"target": "T2, human recombinant CYP2C19 (Homo sapiens, UniProt P33261)", "T2 construct": "purchased Bactosomes (assay run at Cyprotex)", "assay": "CYP reaction phenotyping", "format": "in vitro ADME", "conditions": "for Compound remaining (0 min = 100): CYP2C19", "method": "as §1"}, "[3]": {"target": "T3, human recombinant CYP2C8 (Homo sapiens, UniProt P10632)", "T3 construct": "purchased Bactosomes (assay run at Cyprotex)", "T3 sequence (P10632 1-490)": "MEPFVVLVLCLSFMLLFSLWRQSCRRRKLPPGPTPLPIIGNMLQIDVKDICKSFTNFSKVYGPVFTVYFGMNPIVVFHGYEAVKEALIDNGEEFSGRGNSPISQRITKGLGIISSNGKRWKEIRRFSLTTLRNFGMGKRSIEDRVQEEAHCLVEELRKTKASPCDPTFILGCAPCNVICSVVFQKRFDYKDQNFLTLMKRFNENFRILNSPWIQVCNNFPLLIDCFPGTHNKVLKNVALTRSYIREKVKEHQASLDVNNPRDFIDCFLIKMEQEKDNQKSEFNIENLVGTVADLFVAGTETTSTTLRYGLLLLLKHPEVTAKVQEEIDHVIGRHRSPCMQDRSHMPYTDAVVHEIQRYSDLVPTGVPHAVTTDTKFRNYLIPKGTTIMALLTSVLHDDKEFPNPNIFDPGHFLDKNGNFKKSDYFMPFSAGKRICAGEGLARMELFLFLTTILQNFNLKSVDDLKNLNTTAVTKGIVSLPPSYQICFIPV", "assay": "CYP reaction phenotyping", "format": "in vitro ADME", "method": "as §1"}, "[4]": {"target": "T4, human recombinant CYP2C9 (Homo sapiens, UniProt P11712)", "T4 construct": "purchased Bactosomes (assay run at Cyprotex)", "assay": "CYP reaction phenotyping", "format": "in vitro ADME", "method": "as §1"}, "[5]": {"target": "T5, human recombinant CYP2D6 (Homo sapiens, UniProt P10635)", "T5 construct": "purchased Bactosomes (assay run at Cyprotex)", "assay": "CYP reaction phenotyping", "format": "in vitro ADME", "method": "as §1"}, "[6]": {"target": "T6, human recombinant CYP3A4 (Homo sapiens, UniProt P08684)", "T6 construct": "purchased Bactosomes (assay run at Cyprotex)", "assay": "CYP reaction phenotyping", "format": "in vitro ADME", "conditions": "for Compound remaining (0 min = 100): CYP3A4", "method": "as §1"}, "[7]": {"target": "T7, human recombinant CYP3A5 (Homo sapiens, UniProt P20815)", "T7 construct": "purchased Bactosomes (assay run at Cyprotex)", "assay": "CYP reaction phenotyping", "format": "in vitro ADME", "conditions": "for Compound remaining (0 min = 100): CYP3A5", "method": "as §1"}, "[8]": {"system": "cryopreserved human hepatocytes", "assay": "MTT cytotoxicity in induction-study hepatocytes", "format": "cell-based", "conditions": "up to 500 µM, 72 h, one donor"}, "[9]": {"system": "human primary hepatocytes", "assay": "Primary hepatocyte viability (CellTiter-Blue), human", "format": "cell-based", "conditions": "for %Viability: Human primary hepatocytes", "method": "Safety studies were performed by commercial services using their standard protocols. […] Genotoxicity was investigated using the Ames test (Bacterial Reverse Mutation Assay) (Covance Laboratories Ltd, North Yorkshire, England). In vitro mammalian cell micronucleus screening assay was studied in human peripheral blood lymphocytes (BioReliance Corporation, Rockville, USA). Cardiotoxicity was determined against the hERG channel in an automated patch clamp assay using the Qpatch or against the hNaV 1.5, hKV 1.5 and hCaV 1.2 using a manual patch-clamp technique (Metrion Biosciences, Cambridge, UK). Cytotoxicity in human and rat primary hepatocytes was assessed using the CellTiter-Blue assay performed by commercial services (KaLy-Cell). The viability of HepG2 cells was monitored through the addition of 1 mM resazurin. Following 6 h incubation, the relative amount of reduced resazurin was detected in a fluorimeter and compared to the assay controls (vehicle: 0.1% DMSO and positive control: 10 µM puromycin)."}}, "data": [{"smiles": "C[C@@H](CNC(=O)[C@H](O)C(C)(C)CO)NC(=O)c1cc(F)c(F)cc1F", "note": "[MMV693183]", "values": [{"measurement": "Compound remaining (0 min = 100)", "setting": "[1]; Incubation time (minutes) 0", "value": 100}, {"measurement": "Compound remaining (0 min = 100)", "setting": "[1]; Incubation time (minutes) 5", "value": 101}, {"measurement": "Compound remaining (0 min = 100)", "setting": "[1]; Incubation time (minutes) 15", "value": 104}, {"measurement": "Compound remaining (0 min = 100)", "setting": "[1]; Incubation time (minutes) 30", "value": 97.8}, {"measurement": "Compound remaining (0 min = 100)", "setting": "[1]; Incubation time (minutes) 45", "value": 97.9}, {"measurement": "role in oxidative metabolism", "setting": "[2]; 1 µM, 45 min, to a lower extent", "value": "responsible for the oxidative metabolism"}, {"measurement": "Compound remaining (0 min = 100)", "setting": "[2]; Incubation time (minutes) 0", "value": 100}, {"measurement": "Compound remaining (0 min = 100)", "setting": "[2]; Incubation time (minutes) 5", "value": 98.6}, {"measurement": "Compound remaining (0 min = 100)", "setting": "[2]; Incubation time (minutes) 15", "value": 92.4}, {"measurement": "Compound remaining (0 min = 100)", "setting": "[2]; Incubation time (minutes) 30", "value": 93.6}, {"measurement": "Compound remaining (0 min = 100)", "setting": "[2]; Incubation time (minutes) 45", "value": 95.9}, {"measurement": "Compound remaining (0 min = 100)", "setting": "[3]; Incubation time (minutes) 0", "value": 100}, {"measurement": "Compound remaining (0 min = 100)", "setting": "[3]; Incubation time (minutes) 5", "value": 99.9}, {"measurement": "Compound remaining (0 min = 100)", "setting": "[3]; Incubation time (minutes) 15", "value": 100}, {"measurement": "Compound remaining (0 min = 100)", "setting": "[3]; Incubation time (minutes) 30", "value": 101}, {"measurement": "Compound remaining (0 min = 100)", "setting": "[3]; Incubation time (minutes) 45", "value": 101}, {"measurement": "Compound remaining (0 min = 100)", "setting": "[4]; Incubation time (minutes) 0", "value": 100}, {"measurement": "Compound remaining (0 min = 100)", "setting": "[4]; Incubation time (minutes) 5", "value": 102}, {"measurement": "Compound remaining (0 min = 100)", "setting": "[4]; Incubation time (minutes) 15", "value": 100}, {"measurement": "Compound remaining (0 min = 100)", "setting": "[4]; Incubation time (minutes) 30", "value": 103}, {"measurement": "Compound remaining (0 min = 100)", "setting": "[4]; Incubation time (minutes) 45", "value": 111}, {"measurement": "Compound remaining (0 min = 100)", "setting": "[5]; Incubation time (minutes) 0", "value": 100}, {"measurement": "Compound remaining (0 min = 100)", "setting": "[5]; Incubation time (minutes) 5", "value": 105}, {"measurement": "Compound remaining (0 min = 100)", "setting": "[5]; Incubation time (minutes) 15", "value": 101}, {"measurement": "Compound remaining (0 min = 100)", "setting": "[5]; Incubation time (minutes) 30", "value": 105}, {"measurement": "Compound remaining (0 min = 100)", "setting": "[5]; Incubation time (minutes) 45", "value": 106}, {"measurement": "role in oxidative metabolism", "setting": "[6]; 1 µM, 45 min", "value": "responsible for the oxidative metabolism"}, {"measurement": "Compound remaining (0 min = 100)", "setting": "[6]; Incubation time (minutes) 0", "value": 100}, {"measurement": "Compound remaining (0 min = 100)", "setting": "[6]; Incubation time (minutes) 5", "value": 101}, {"measurement": "Compound remaining (0 min = 100)", "setting": "[6]; Incubation time (minutes) 15", "value": 94.1}, {"measurement": "Compound remaining (0 min = 100)", "setting": "[6]; Incubation time (minutes) 30", "value": 90.1}, {"measurement": "Compound remaining (0 min = 100)", "setting": "[6]; Incubation time (minutes) 45", "value": 91.5}, {"measurement": "role in oxidative metabolism", "setting": "[7]; 1 µM, 45 min", "value": "responsible for the oxidative metabolism"}, {"measurement": "Compound remaining (0 min = 100)", "setting": "[7]; Incubation time (minutes) 0", "value": 100}, {"measurement": "Compound remaining (0 min = 100)", "setting": "[7]; Incubation time (minutes) 5", "value": 101}, {"measurement": "Compound remaining (0 min = 100)", "setting": "[7]; Incubation time (minutes) 15", "value": 92.7}, {"measurement": "Compound remaining (0 min = 100)", "setting": "[7]; Incubation time (minutes) 30", "value": 91.6}, {"measurement": "Compound remaining (0 min = 100)", "setting": "[7]; Incubation time (minutes) 45", "value": 93.9}, {"measurement": "cell viability (MTT)", "setting": "[8]", "value": "no change in cell viability"}, {"measurement": "%Viability", "setting": "[9]; Lot R1323T, 0.1 µM", "value": 98, "unit": "%"}, {"measurement": "%Viability", "setting": "[9]; Lot R1323T, 0.5 µM", "value": 92, "unit": "%"}, {"measurement": "%Viability", "setting": "[9]; Lot R1323T, 1 µM", "value": 88, "unit": "%"}, {"measurement": "%Viability", "setting": "[9]; Lot R1323T, 5 µM", "value": 92, "unit": "%"}, {"measurement": "%Viability", "setting": "[9]; Lot R1323T, 10 µM", "value": 99, "unit": "%"}, {"measurement": "%Viability", "setting": "[9]; Lot S1552T, 0.1 µM", "value": 98, "unit": "%"}, {"measurement": "%Viability", "setting": "[9]; Lot S1552T, 0.5 µM", "value": 98, "unit": "%"}, {"measurement": "%Viability", "setting": "[9]; Lot S1552T, 1 µM", "value": 102, "unit": "%"}, {"measurement": "%Viability", "setting": "[9]; Lot S1552T, 5 µM", "value": 97, "unit": "%"}, {"measurement": "%Viability", "setting": "[9]; Lot S1552T, 10 µM", "value": 104, "unit": "%"}, {"measurement": "IC50", "setting": "[9]; primary human hepatocytes", "value": "> 10", "unit": "µM"}]}]}
